The experiment deals with Staphylococcus aureus ATCC 43300 MRSA. The experiment is described as follows: CO-ADD antibacterial assay (growth inhibition, MIC), MRSA. It counts as cell-based. The conditions noted are these: read-out: MRSA MIC (CO-ADD). As for the experimental part: Hit Confirmation of active compounds by whole cell growth inhibition assays was conducted as an 8-point dose response to determine the Minimum Inhibitory Concentration (MIC), in duplicate (n=2). The inhibition of growth is measured against those microorganisms that […]
Included in the Hit Confirmation were 5 bacteria: Escherichia coli, Klebsiella pneumoniae, Acinetobacter baumannii, Pseudomonas aeruginosa and Staphylococcus aureus, and 2 fungi Candida albicans and Cryptococcus neoformans. […]
Assay Parameters Bacteria Fungi HEK293 Haemolysis […]
Duplicate (n=2) Duplicate (n=2) Duplicate (n=2) Duplicate (n=2)
QC Control MIC: Control MIC: Control CC50: Control HC10:
Non-Binding Non-Binding TC, 384-well Polypropylene
Plates Surface (NBS), Surface (NBS), black wall/clear 384-well and 384-well plate 384-well plate bottom polystyrene 384-
Cation-adjusted Yeast Nitrogen DMEM
Media Mueller Hinton Base supplemented 0.9% NaCl
Hit Confirmation outcomes are detailed in individual Project reports, personalised for each Project Submission for each CO-ADD user.
Please see your data sheet with file extension P0XXX_HC_data.xlsx, for example CO-ADD Project P0100, P0100_HC_data.xlsx
Study: HC_data ID: HC-Procedures & Materials
Date: Last updated June 2018 Confidential Page 3 of 11
(1 picture or pasted object on this page, not shown here)
Samples were provided by the collaborator and stored frozen at -20 °C. Samples were prepared in DMSO and water to a final testing concentration of 32 µg/mL or 20 µM (unless otherwise indicated in the data sheet) and serially diluted 1:2 fold for 8 times. Each sample concentration was prepared in 384-well plates, non-binding surface plate (NBS; Corning 3640) for each bacterial/fungal strain, tissue-culture treated (TC-treated; Corning 3712/3764) black for mammalian cell types and polypropylene 384-well (PP; Corning 3657) for haemolysis assays, all in duplicate (n=2), and keeping the final DMSO concentration to a maximum of 0.5%. All the sample preparation was done using liquid handling robots. […]
detailed in the Data sheet for the individual Project.
All bacteria were cultured in Cation-adjusted Mueller Hinton broth (CAMHB) at 37 °C overnight. A sample of each culture was then diluted 40-fold in fresh broth and incubated at 37 °C for 1.5-3 h. The resultant mid-log phase cultures were diluted (CFU/mL measured by OD600), then added to each well of the compound containing plates, giving a cell density of 5×10^5 CFU/mL and a total volume of 50 µL. All the plates were covered and incubated at 37 °C for 18 h without shaking.
Inhibition of bacterial growth was determined measuring absorbance at 600 nm (OD600), using a Tecan M1000 Pro monochromator plate reader. The percentage of growth inhibition was calculated for each well, using the negative control (media only) and positive control (bacteria without inhibitors) on the same plate as references.
The percentage of growth inhibition was calculated for each well, using the negative control (media only) and positive control (bacteria without inhibitors) on the same plate. The MIC […]
by an inhibition ≥ 80%. In addition, the maximal percentage of growth inhibition is reported as DMax, indicating any compounds with partial activity.
Date: Last updated June 2018 Confidential Page 5 of 11
Material Code Brand/Supplier Cat No.
Compound preparation plate, Polypropylene PP Corning 3364
Assay Plates – Antimicrobial
Non-binding surface NBS 384w Corning 3640
Assay Plates – Cytotoxicity
Tissue culture treated Black/Clear bottom 384w Corning 3712
Assay Plates - Haemolysis PP-Haem Corning 3657 […]
Growth media - bacteria CAMHB Bacto Laboratories 212322
Culture agar - fungi YPD Becton Dickinson 242720
Growth media - fungi YNB Becton Dickinson 233520
Resazurin Sigma-Aldrich R7017
Dulbecco's Modified Eagle Medium DMEM Life Technologies 11995-073
Foetal Bovine Serum FBS Bovogen FFBS-500
0.9% NaCl Saline Baxter AHF7124
Sample Name Sample ID MW Conc. Solvent Source […]

≈ marks a conversion by molar mass, not a printed value.

On to `c1ccc(-c2nc3n(c2-c2ccc4sccc4c2)CCC3)nc1` [OSA_000822], for which the minimal inhibitory concentration (MIC) (commonly the least concentration at which growth counts as inhibited) worked out at 2 µg/mL (≈ 6.3 µM).
To `c1ccc(-c2nc3n(c2-c2ccc4occc4c2)CCC3)nc1` [compound 821] belongs 4 µg/mL (≈ 13.3 µM).
